Laboratory results reported in US12473305B2, “Pyrazole boronic acid compound, pharmaceutical composition containing same, and uses thereof” (BEIJING SONGRUN PHARMACEUTICAL TECHNOLOGY CO., LTD., priority 2020, dated 2025).
pIC50: −log10 of the molar value.

Experiments:
[1] = system: non-small cell lung cancer cell line A549; test: CellTiter-Glo tumor cell proliferation, A549; format: cell-based, human; details: Homo sapiens, A549, 72 h; for inhibition at 1 µM / inhibition at 10 µM: read-out: Inhibition rate A549 (%)
Procedure: (§1) The effect of compounds on tumor cell proliferation was detected by CellTiter-Glo method. Human melanoma cell line A375, non-small cell lung cancer cell line A549, human lung adenocarcinoma cell line H1299, colorectal cancer cell line HCT116, liver cancer cell line HepG2 and gastric cancer cell line MGC80-3 were cultured in vitro. The cells were collected after growing to the logarithmic growth phase, centrifuged at 1000 rpm for 5 min, and suspended in an appropriate amount of medium after discarding the supernatant, and the cell concentration was adjusted to 2×10^4/mL. The cell suspension was inoculated onto the 384-well cell culture plate, with 50 μL per well. After being cultured in a cell incubator (37° C., 5% CO2) for 24 h, 5 μL of drug diluted by the cell culture medium was added into each well for the treatment group. Each drug was provided in triplicate. After 72 h incubation in the incubator, 20 μL of CellTiter-Glo was added into each well, and the relative luminescence unit (RLU) was measured with Multimode Microplate Reader Varioskan Flash (Thermo Scientific, USA) after placed at 37° C. for 20 min, and compared with the RLU of the control group. SigmaPlot 10.0 software was used to calculate the inhibition rate and IC50 value.

[2] = system: Human melanoma cell line A375; test: CellTiter-Glo tumor cell proliferation, A375; format: cell-based; details: Homo sapiens, A-375, 72 h; for inhibition at 1 µM / inhibition at 10 µM: read-out: Inhibition rate A375 (%)
Procedure: as §1

[3] = system: colorectal cancer cell line HCT116; test: CellTiter-Glo tumor cell proliferation, HCT116; format: cell-based, human; details: Homo sapiens, HCT-116, 72 h; for inhibition at 1 µM / inhibition at 10 µM: read-out: Inhibition rate HCT116 (%)
Procedure: as §1

pIC50 ([1]; CellTiter-Glo)	pIC50 ([2]; CellTiter-Glo)	pIC50 ([3]; CellTiter-Glo)	SMILES	inhibition at 1 µM [1] [%]	inhibition at 10 µM [1] [%]	inhibition at 1 µM [2] [%]	inhibition at 10 µM [2] [%]	inhibition at 1 µM [3] [%]	inhibition at 10 µM [3] [%]
			CC(C)C[C@H](NC(=O)Cn1nc(-c2ccccc2OS(=O)(=O)c2cc(Cl)ccc2Cl)cc1-c1ccccc1)B(O)O [Compound 7, (R)-(1-(2-(3-(2-(((2,5-dichlorophenyl)sulfonyl)oxy)phenyl)-5-phenyl-1H-pyrazol-1-yl)-acetamido)-3-methylbutyl)boronic acid]	16.5	52	3.7	96	3.5	96.6
			Cc1cccc(S(=O)(=O)Oc2ccccc2-c2cc(-c3ccccc3)n(CC(=O)N[C@@H](CC(C)C)B(O)O)n2)c1 [Compound 8, (R)-(3-methyl-1-(2-(5-phenyl-3-(2-((m-tolylsulfonyl)oxy)phenyl)-1H-pyrazol-1-yl)acetamido)butyl)boronic acid]	2.9	73.4	1.8	98.9	2.1	98.5
			CC(C)C[C@H](NC(=O)Cn1nc(-c2ccccc2OS(=O)(=O)c2cccs2)cc1-c1ccccc1)B(O)O [Compound 9, (R)-(3-methyl-1-(2-(5-phenyl-3-(2-((thiophen-2-ylsulfonyl)oxy)phenyl)-1H-pyrazol-1-yl)acetamido)butyl)boronic acid]	3.6	83.2	4.6	98.3	2.9	98.3
			CC(C)C[C@H](NC(=O)Cn1nc(-c2ccccc2OS(=O)(=O)c2ccccn2)cc1-c1ccccc1)B(O)O [Compound 10, (R)-(1-(2-(3-(2-((pyridin-2-ylsulfonyl)oxy)phenyl)-5-phenyl-1H-pyrazol-1-yl)acetamido)-3-methylbutyl)boronic acid]	0.1	72.9	1.5	98	6.6	98
5.97	5.59	6.15	CC(C)C[C@H](NC(=O)Cn1nc(-c2cccc(OS(=O)(=O)c3cccc(C(F)(F)F)c3)c2)cc1-c1ccccc1)B(O)O [Compound 11, (R)-(3-methyl-1-(2-(5-phenyl-3-(3-(((3-(trifluoromethyl)phenyl)sulfonyl)oxy)phenyl)-1H-pyrazol-1-yl)acetamido)butyl)boronic acid]	63.4	90.3	90.2	98.8	95.4	98.4
			CC(C)C[C@H](NC(=O)Cn1nc(-c2ccc(OS(=O)(=O)c3cccc(C(F)(F)F)c3)cc2)cc1-c1ccccc1)B(O)O [Compound 12, (R)-(3-methyl-1-(2-(5-phenyl-3-(4-(((3-(trifluoromethyl)phenyl)sulfonyl)oxy)phenyl)-1H-pyrazol-1-yl)acetamido)butyl)boronic acid]	45.5	85.3	83	98.7	45.8	96.3
			CC(C)C[C@H](NC(=O)Cn1nc(-c2ccccc2OS(=O)(=O)c2cccc(C(F)(F)F)c2)cc1-c1ccc(Br)cc1)B(O)O [Compound 13, (R)-(1-(2-(5-(4-bromophenyl)-3-(2-(((3-(trifluoromethyl)phenyl)sulfonyl)oxy)phenyl)-1H-pyrazol-1-yl)acetamido)-3-methylbutyl)boronic acid]	4.5	10.4	8.1	41.3	8.2	3.3
			CC(C)C[C@H](NC(=O)Cn1nc(-c2ccccc2OS(=O)(=O)c2cccc(C(F)(F)F)c2)cc1-c1cccc(Br)c1)B(O)O [Compound 14, (R)-(1-(2-(5-(3-bromophenyl)-3-(2-(((3-(trifluoromethyl)phenyl)sulfonyl)oxy)phenyl)-1H-pyrazol-1-yl)acetamido)-3-methylbutyl)boronic acid]	10.8	8	16.5	50.4	9.9	9.2
			CC(C)[C@H](NC(=O)Cn1nc(-c2ccccc2OS(=O)(=O)c2cccc(C(F)(F)F)c2)cc1-c1ccccc1Br)B(O)O [Compound 15, (R)-(1-(2-(5-(2-bromophenyl)-3-(2-(((3-trifluoromethylphenyl)sulfonyl)oxy)phenyl)-1H-pyrazol-1-yl)acetamido)isobutyl)boronic acid]	7.5	1.5	3	67.2	5	3.6
			CC(C)C[C@H](NC(=O)Cn1nc(-c2ccccc2OS(=O)(=O)c2cccc(C(F)(F)F)c2)cc1-c1ccc(F)cc1)B(O)O [Compound 16, (R)-(1-(2-(5-(4-fluorophenyl)-3-(2-(((3-(trifluoromethyl)phenyl)sulfonyl)oxy)phenyl)-1H-pyrazol-1-yl)acetamido)-3-methylbutyl)boronic acid]	1.6	36.9	14.2	91.9	8.3	93.8
			CC(C)C[C@H](NC(=O)Cn1nc(-c2ccccc2OS(=O)(=O)c2cccc(C(F)(F)F)c2)cc1-c1ccc(Cl)cc1)B(O)O [Compound 17, (R)-(1-(2-(5-(4-chlorophenyl)-3-(2-(((3-(trifluoromethyl)phenyl)sulfonyl)oxy)phenyl)-1H-pyrazol-1-yl)acetamido)-3-methylbutyl)boronic acid]	0.3	1.9	8.3	56.1	13.6	70.6
			CC(C)C[C@H](NC(=O)Cn1nc(-c2ccccc2OS(=O)(=O)c2cccc(C(F)(F)F)c2)cc1-c1ccc(C#N)cc1)B(O)O [Compound 18, (R)-(1-(2-(5-(4-cyanophenyl)-3-(2-(((3-(trifluoromethyl)phenyl)sulfonyl)oxy)phenyl)-1H-pyrazol-1-yl)acetamido)-3-methylbutyl)boronic acid]	7.1	29	4.6	81.1	5.5	89.7
			CC(C)C[C@H](NC(=O)Cn1nc(-c2ccccc2OS(=O)(=O)c2cccc(C(F)(F)F)c2)cc1-c1ccc(S(C)(=O)=O)cc1)B(O)O [Compound 19, (R)-(1-(2-(5-(4-(methylsulfonyl)phenyl)-3-(2-(((3-(trifluoromethyl)phenyl)sulfonyl)oxy)phenyl)-1H-pyrazol-1-yl)acetamido)-3-methylbutyl)boronic acid]	8.7	7.9	4.1	45.2	14.5	33.9
			Cc1ccc(-c2cc(-c3ccccc3OS(=O)(=O)c3cccc(C(F)(F)F)c3)nn2CC(=O)N[C@H](B(O)O)C(C)C)cc1 [Compound 20, (R)-(1-(2-(5-(4-methyl-phenyl)-3-(2-(((3-trifluoromethylphenyl)sulfonyl)oxy)phenyl)-1H-pyrazol-1-yl)acetamido)isobutyl)boronic acid]	1.2	4.2	11.5	61.9	9.2	85.1
			COc1ccc(-c2cc(-c3ccccc3OS(=O)(=O)c3cccc(C(F)(F)F)c3)nn2CC(=O)N[C@@H](CC(C)C)B(O)O)cc1 [Compound 21, (R)-(1-(2-(5-(4-methoxyphenyl)-3-(2-(((3-(trifluoromethyl)phenyl)sulfonyl)oxy)phenyl)-1H-pyrazol-1-yl)acetamido)-3-methylbutyl)boronic acid]	4.4	6.4	2	44.1	11.4	62.2
			CC(C)C[C@H](NC(=O)Cn1nc(-c2ccccc2OS(=O)(=O)c2cccc(C(F)(F)F)c2)cc1-c1ccc(-c2ccccc2)cc1)B(O)O [Compound 22, (R)-(1-(2-(5-([1,1′-biphenyl]-4-yl)-3-(2-(((3-(trifluoromethyl)phenyl)sulfonyl)oxy)phenyl)-1H-pyrazol-1-yl)acetamido)-3-methylbutyl)boronic acid]	3.7	16.1	10.9	39.1	3.9	18.1
